In experiment [1] the test system is Pseudomonas aeruginosa PA14 wild-type biofilms. In kind it is cell-based. The text has this:
(§1) Biofilm formation. Biofilms were aerobically cultivated using the MBEC high-throughput (HTP) or Physiology and Genetics (P&G) device (Innovotech, Edmonton, Canada) as described in the manufacturer's instructions and by Ceri et al. (1999). To summarize, the parts of this batch culture apparatus were used in two ways. The top half of the plastic MBEC™-HTP device is a lid with 96 polystyrene pegs that also fits over a standard 96-well microtitre plate. For Biofilm growth, the bottom half was either (1) a corrugated trough that guided 22 mL of inoculum across the pegs when the device was placed on a rocker at 3.5 rocks per min (HTP format), or (2) a microtitre plate with […] of inoculum in each well that was placed on a gyrorotary shaker at 150 r.p.m. (P&G format). For either assay format, the inoculum was prepared to c. 10^7CFU/mL1 of the desired strain and the inoculated device was incubated at 35° C. and 95% relative humidity for the required time. Unless otherwise noted, all experiments utilized the MBEC P&G assay. Pegs from the devices were collected at specific time points for scanning electron microscopy and scanning confocal laser microscopy. Biofilm cell densities were evaluated by breaking pegs from the lid of the MBEC device with sterile pliers, rinsing the peg in PBS, and subsequent viable-cell counting as described above. PBS containing the […] surfactant Tween-20 (1% v/v) was used to assist in recovery of bacteria from the peg surfaces. Pegs were sonicated for 30 min in an Aquasonic model 250HT ultrasonic cleaner (VWR International, Mississauga, Canada). Samples of broth culture were collected at the same time points and viable cell counts were determined in a similar manner.
(§2) Antimicrobial susceptibility testing. Antibiotic, metal and biocide susceptibility tests were performed. Antimicrobials were arranged into arrays in microtitre plates that typically consisted of serial two-fold dilutions along the rows of wells (the challenge plates). The first and last wells of every row were used as sterility and growth controls, respectively. […] Biofilms were rinsed with PBS (to remove loosely adherent planktonic cells) and inserted into the challenge plates. After exposure, biofilms were rinsed once in PBS and inserted into microtitre plates containing […] of recovery medium in each well (LB broth, 5 mM GSH, 5 mM L-cys, 1% v/v tween-20). These biofilms were disrupted into the recovery medium using a sonicator, and the recovered cells were serially diluted and plated for viable cell counting. Spot plates from these experiments were incubated for a minimum of 36 h at 35° C. before enumeration. Minimum inhibitory concentration (MIC) values were determined by reading the optical density at 650 nm (OD650) of challenge plates after 72 h at 35° C. using a THERMOmax microplate reader with SOFTMAX PRO data analysis software (Molecular Devices, Sunnyvale, Calif.).
(§3) For susceptibility testing, growth-curve data were used to calibrate incubation times to produce biofilms of similar cell density. […] In this model system, planktonic cells shed from the surface of biofilms served as the inoculum for MIC determinations.

Experiment [2] deals with Pseudomonas aeruginosa PA14 SCV biofilms. The experiment in a line: Biofilm susceptibility testing (viable cell counts, log-killing, MBEC99.9). In kind it is cell-based.
Text: as §1, §2, §3

For experiment [3], the system named is Pseudomonas aeruginosa PA14 gacS^− biofilms. The description is as above. The format is cell-based.
Text: as §1, §2, §3

The test system of experiment [4] is Pseudomonas aeruginosa PA14 SCV. As to the kind of experiment: MIC determination, planktonic cells shed from biofilms (MBEC P&G device). In kind it is cell-based. As to conditions: SCV; planktonic cells; OD650 after 72 h at 35° C.; mean ± SD of four trials. The protocol: as §2, §3
Experiment [5] relates to Pseudomonas aeruginosa PA14 gacS^−. The experiment is described as above. In kind it is cell-based. Conditions: gacS^−; planktonic cells; OD650 after 72 h at 35° C.; mean ± SD of four trials. The protocol: as §2, §3
Experiment [6] relates to Pseudomonas aeruginosa PA14 wild-type. The experiment in a line: microbe, parasite or virus in culture. In kind it is cell-based. The protocol: as §2, §3
Experiment [7] has as its system Pseudomonas aeruginosa PA14 gacS^− biofilms. The experiment in a line: Frequency of SCV cells arising from 24-h biofilms exposed for 18 h. In kind it is cell-based. As to conditions: for frequency of SCVs (phenotypic variants) among surviving cells, in words: 18 h exposure of 24-h biofilms; for Log-survival / SCV frequency: LB broth, antibiotic 1.25 μg mL^−1, overnight (18 h). The protocol: In an alternative set of experiments, the frequency of SCV cells arising from 24-h biofilms of P. aeruginosa PA14 gacS was evaluated. Antibiotics were diluted from stock solutions into LB broth to obtain final concentrations of […]. These were arranged in triplicate in a micro-titre plate. Biofilms were incubated in these low concentrations of antibacterials for 18 h at 35° C. and 95% relative humidity. Goat and human serum were also assayed in this array, and were kind gifts from The Life and Environmental Sciences Animal Care Facility at the University of Calgary, Department of Biological Sciences. After exposure, biofilms were treated in a manner identical to that described above.
Frequency of phenotypic variation. During the course of susceptibility assays, the proportion of SCV cells recovered from biofilms after exposure to Ag^+ or H2O2 was increased relative to the corresponding growth controls. It was queried whether this may be true for other antimicrobial agents or growth conditions. An array of clinically used antibiotics, saline, and goat and human sera were examined for an ability to select for these SCVs from 24-h biofilms of P. aeruginosa PA14 gacS. Biofilms were exposed to these agents for 18 h and each assay was performed in triplicate. Viable cell counts were determined for each exposure condition, and log-survival was determined. The proportion of SCV cells in bacterial populations recovered from these exposure conditions was calculated as the mean of the proportions from each individual trial.

Experiment [8] has the same test system. The experiment is described as above. The format is cell-based. Conditions: for Log-survival / No. of survivors / SCV frequency: LB broth, overnight (18 h).
Experiment [9] concerns P. aeruginosa PA14 gacA biofilms. The experiment in a line: Antibiotic susceptibility profiling of biofilms with the MBEC device. In kind it is cell-based, Pseudomonas aeruginosa. As to conditions: in words. The protocol: Growth Conditions, Sample Analysis and Bio-Assays of Pseudomonas aeruginosa. Biofilm and planktonic growth studies were performed using the Calgary Biofilm Device (CBD) (MBEC™ Biofilm Technologies Limited). Pseudomonas aeruginosa PA14 wild type, gacA and toxA strains were grown for 24 hours in Tryptic Soy Broth (BDH). Biofilm and planktonic populations were sampled at points.
Sampling of biofilm populations was achieved by dislodging a peg from the 96 peg lid, whereas planktonic populations were sampled by removing an aliquot from the growth vessel. Biofilms were disrupted to release individual component cells by sonication. Cell counts of both populations were determined by serial dilution in 0.9% saline and spot plating on Tryptic Soy Agar plates (BDH). Antibiotic susceptibility profiling of P. aeruginosa PA14 wild type, toxA and gacA strains was performed using the MBEC™ device as per manufacturer's instructions (MBEC™ Biofilm Technologies Limited).

The mark [10] stands for this setting: LB broth, 4 μg mL^−1, 2 h exposure.

13 molecules from patent publication US20080075730A1, “Methods and compositions for treating biofilms” (priority 2003, published 2008) can be followed below.

In the case of `[Ag+]` [Ag^+], the “concentration at which the vast majority of cell viability was lost” value in experiment [1] (PA14 wt biofilms, 2 h exposure (FIG. 15)) was 0.04 mM; in experiment [3] (PA14 gacS biofilms, 2 h exposure (FIG. 15)) it was 0.02 mM. For the same molecule, the MBEC99.9 in experiment [1] (wild type biofilms, 2 h exposure, 3 log10 reduction in viable cells) turned out to be 0.08 ± 0.05 mM; in experiment [2] (SCV biofilms, 2 h exposure, 3 log10 reduction in viable cells), 4.8 ± 0 mM; in [3] (gacS^− biofilms, 2 h exposure, 3 log10 reduction in viable cells), 0.06 ± 0.02 mM. In [2] (SCV biofilms, 2 h exposure (FIG. 15)), the “concentration to which biofilms were resistant” value was determined as 2.4 mM. Moreover, the “tolerance of SCV strain biofilms relative to the wild-type strain” value in experiment [2] (ratio of MBEC99.9 values, SCV vs wild type) is recorded as around 60 times. The Log-survival in experiment [3] (setting [10]) was −2.6 ± 0.1 log10 CFU peg^−1. Moreover, the No. of survivors in [3] (setting [10]) was found to be 2.4 ± 0.1 log10 CFU peg^−1. In experiment [3] (setting [10]), this molecule came in with an SCV frequency of 7%. The “proportion of SCV cells recovered from biofilms after exposure, relative to growth controls” value in experiment [3] (susceptibility assays, in words) was “increased”. Also, the MIC72 h in experiment [4] came out at 40 ± 0 µM; in experiment [5], 40 ± 10 µM; in experiment [6] (wild type, planktonic cells, OD650 after 72 h at 35° C., mean ± SD of four trials) it was 40 ± 20 µM. Besides, the “differences in planktonic cell susceptibility between the different strains” value in [6] (wild type vs gacS^− vs SCV, log2 difference or less) is on record as “no significant differences”.

In the case of `NCC[C@H](O)C(=O)N[C@@H]1C[C@H](N)[C@@H](O[C@H]2O[C@H](CN)[C@@H](O)[C@H](O)[C@H]2O)[C@H](O)[C@H]1O[C@H]1O[C@H](CO)[C@@H](O)[C@H](N)[C@H]1O` [Amikacin], the “frequency of SCVs (phenotypic variants) among surviving cells, in words” value (shortened to “frequency of SCVs”) in [7] was “approximately one in five”. In experiment [8] (antibiotic 5 μg mL^−1), this molecule returned a Log-survival of −2.8 ± 0.6 log10 CFU peg^−1, a No. of survivors of 3.6 ± 0.6 log10 CFU peg^−1 and an SCV frequency of 23%.

In experiment [7], `C[C@H]1[C@H](NC(=O)/C(=N\OC(C)(C)C(=O)O)c2csc(N)n2)C(=O)N1S(=O)(=O)O` [Azetronam] returned a Log-survival of −2.6 ± 0.5 log10 CFU peg^−1 and an SCV frequency of 24%. The molecule further yielded a No. of survivors in [8] (antibiotic 1.25 μg mL^−1) of 4.5 ± 0.5 log10 CFU peg^−1.

`CO/N=C(\C(=O)N[C@@H]1C(=O)N2C(C(=O)O)=C(CSc3nc(=O)c(O)nn3C)CS[C@H]12)c1csc(N)n1` [Ceftrioxone]: in [7], the “frequency of SCVs” value is “approximately one in three”; the Log-survival entry was “+0.4 ± 0.5 log10 CFU peg^−1”; the SCV frequency is reported as 29%. The No. of survivors in experiment [8] (antibiotic 1.25 μg mL^−1) is reported as 6.8 ± 0.5 log10 CFU peg^−1.

Consider `CC[C@H]1OC(=O)[C@H](C)[C@@H](O[C@H]2C[C@@](C)(OC)[C@@H](O)[C@H](C)O2)[C@H](C)[C@@H](O[C@@H]2O[C@H](C)C[C@H](N(C)C)[C@H]2O)[C@](C)(O)C[C@@H](C)C(=O)[C@H](C)[C@@H](O)[C@]1(C)O` [Erythromicin], for which, in experiment [7] (in words), the “selection for SCVs / increase of the frequency of SCV cells compared with growth controls” value is recorded as “in no instances”. The “biofilm resistance relative to PA14 wild type or toxA control strain” value in [9] is “moderately decreased resistance”. Besides, in [8] (antibiotic 5 μg mL^−1), the Log-survival is −0.1 ± 0.3 log10 CFU peg^−1, the No. of survivors is 6.4 ± 0.3 log10 CFU peg^−1 and the SCV frequency was 0%.

In experiment [7], `C[C@@H](O)[C@H]1C(=O)N2C(C(=O)O)=C(SCCN=CN)C[C@H]12` [Imipenem] displayed a Log-survival of −3.8 ± 1.0 log10 CFU peg^−1 and an SCV frequency of 0%. Also, the No. of survivors in [8] (antibiotic 1.25 μg mL^−1) is on record as 2.7 ± 1.0 log10 CFU peg^−1.

`Cc1onc(-c2ccccc2)c1C(=O)N[C@@H]1C(=O)N2[C@@H]1SC(C)(C)[C@@H]2C(=O)O` [Oxacilin]: in experiment [7], the “frequency of SCVs” value is reported as “approximately one in three”; the Log-survival is −0.9 ± 0.6 log10 CFU peg^−1; the SCV frequency was determined as 32%. Also, the No. of survivors in experiment [8] (antibiotic 1.25 μg mL^−1) stood at 5.6 ± 0.6 log10 CFU peg^−1.

`CO[C@H]1/C=C/O[C@@]2(C)Oc3c(C)c(O)c4c(O)c(c(/C=N/N5CCN(C)CC5)c(O)c4c3C2=O)NC(=O)/C(C)=C\C=C\[C@H](C)[C@H](O)[C@@H](C)[C@@H](O)[C@@H](C)[C@H](OC(C)=O)[C@@H]1C` [Rifampicin]: in experiment [8] (5 μg/mL), the “cells killed from the biofilm population” value amounted to 0.7 log10 cells. Moreover, in [8] (antibiotic 5 μg mL^−1), the Log-survival was −0.7 ± 0.3 log10 CFU peg^−1, the No. of survivors is on record as 5.7 ± 0.3 log10 CFU peg^−1 and the SCV frequency is recorded as 58%.

As to `NC[C@H]1O[C@H](O[C@H]2[C@H](O)[C@@H](O[C@H]3O[C@H](CO)[C@@H](O)[C@H](N)[C@H]3O)[C@H](N)C[C@@H]2N)[C@H](N)C[C@@H]1O` [Tobramicin], in [7], the “frequency of SCVs” value was “approximately one in five”; the Log-survival is recorded as −1.0 ± 0.5 log10 CFU peg^−1; the SCV frequency is 14%. The No. of survivors in experiment [8] (antibiotic 1.25 μg mL^−1) is given as 5.4 ± 0.5 log10 CFU peg^−1.

As for `CC[C@H]1OC(=O)[C@H](C)[C@@H](O[C@H]2C[C@@](C)(OC)[C@@H](O)[C@H](C)O2)[C@H](C)[C@@H](O[C@@H]2O[C@H](C)C[C@H](N(C)C)[C@H]2O)[C@](C)(O)C[C@@H](C)CN(C)[C@H](C)[C@@H](O)[C@]1(C)O` [azythromycin], the “biofilm resistance relative to PA14 wild type or toxA control strain” value in experiment [9] is “moderately decreased resistance”.

With `O=C(N[C@H](CO)[C@H](O)c1ccc([N+](=O)[O-])cc1)C(Cl)Cl` [chloramphenicol], the “biofilm resistance relative to PA14 wild type or toxA control strain” value in [9] is “moderately decreased resistance”.

Take `CCN1CCN(C(=O)N[C@@H](C(=O)N[C@@H]2C(=O)N3[C@@H]2SC(C)(C)[C@@H]3C(=O)O)c2ccccc2)C(=O)C1=O` [piperacillin]: the “frequency of SCVs” value in experiment [7] is recorded as “approximately one in three”. In experiment [9], the “biofilm resistance relative to PA14 wild type or toxA control strain” value was “moderately decreased resistance”.

As for polymixin B, the “biofilm resistance relative to PA14 wild type or toxA control strain” value in [9] is “moderately decreased resistance”.
